Data taken from US20260035367A1 (Celgene Corporation, priority 2021, published 2026).
Like-named read-outs stand apart in the source and are kept apart here.

Experiments:
[1] = biological target: T1, Recombinant human PKC-delta (His-tagged 345-676) (Homo sapiens, UniProt Q05655); assay: PKC-delta inhibition assay (HTRF KinEASE kit); assay type: biochemical; conditions: ratio, PKC-theta vs PKC-delta HTRF; for PKC-theta/PKC-delta selectivity (binned): binned A to G
T1 construct: PKC-delta (His-tagged 345-676); His
T1 sequence (Q05655 345-676): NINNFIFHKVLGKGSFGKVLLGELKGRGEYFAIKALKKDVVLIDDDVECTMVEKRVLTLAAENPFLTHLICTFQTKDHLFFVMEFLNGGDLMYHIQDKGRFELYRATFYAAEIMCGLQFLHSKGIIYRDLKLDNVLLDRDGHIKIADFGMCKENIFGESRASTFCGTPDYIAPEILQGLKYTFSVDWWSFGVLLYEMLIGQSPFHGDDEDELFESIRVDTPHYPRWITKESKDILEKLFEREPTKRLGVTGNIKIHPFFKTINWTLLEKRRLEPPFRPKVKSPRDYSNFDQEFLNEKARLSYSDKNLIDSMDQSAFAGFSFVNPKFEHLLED

[2] = biological target: T2, Recombinant human PKC-theta (His-tagged 362-706) (Homo sapiens, UniProt Q04759); assay: PKC-theta inhibition assay (HTRF KinEASE kit); assay type: biochemical; conditions: ATP 6.5 μM, STK substrate 525 nM
T2 construct: Recombinant human PKC-theta (His-tagged 362-706); His
T2 sequence (Q04759 362-706): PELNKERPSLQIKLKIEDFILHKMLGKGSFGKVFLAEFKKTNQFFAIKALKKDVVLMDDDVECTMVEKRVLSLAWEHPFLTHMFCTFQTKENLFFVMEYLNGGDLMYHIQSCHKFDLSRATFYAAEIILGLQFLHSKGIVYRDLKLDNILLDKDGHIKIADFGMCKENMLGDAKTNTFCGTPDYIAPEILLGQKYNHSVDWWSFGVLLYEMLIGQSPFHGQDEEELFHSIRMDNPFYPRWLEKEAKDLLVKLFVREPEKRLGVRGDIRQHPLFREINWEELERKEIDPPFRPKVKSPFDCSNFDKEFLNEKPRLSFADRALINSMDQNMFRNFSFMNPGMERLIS
Summary of the method: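 IC50 values were from 4-parameter logistic fits of percent inhibition, based on acceptor/donor HTRF ratios over 10 semi-log compound doses. Kinase reactions, started with substrate plus ATP, ran 30 min at 25 °C in buffer supplemented with 10 mM MgCl2, 1 mM DTT and 0.1% Tween 20; detection lasted 2 h.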

[3] = test system: IL-2 secretion by human effector memory T cells (TEM); assay: Effector memory T cells IL-2 release assay (CD3/CD28 stimulation, HTRF IL-2 detection); assay type: cell-based; conditions: 24 h; for IC50: Homo sapiens, T-cell
Summary of the method: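 Human effector memory T cells from healthy-donor buffy coats were exposed in triplicate to ten semi-log doses of compound in 0.1% DMSO. The cells were stimulated and incubated 24 h at 37 °C. Secreted IL-2 in the supernatant was measured by HTRF.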

[4] = binned A to H, read-out: PKC-theta HTRF pIC50 (binned) (converted)
[5] = read-out: PKC-theta HTRF pIC50 (converted)
[6] = binned A to G, read-out: PKC-theta IL2 pIC50 (binned) (converted)
[7] = read-out: PKC-theta IL2 pIC50 (converted)

SMILES | PKC-theta/PKC-delta selectivity [1] | PKC-theta/PKC-delta selectivity (binned) [1] | IC50 [2, 4] [nM] | IC50 [2, 5] [nM] | IC50 [3, 6] [nM] | IC50 [3, 7] [nM] | PKC-theta IL2 pIC50 (binned) ([3]; binned A to G)
CC[C@]1(C)C(=O)Nc2nccc(-c3cc(Cl)cc(N4CCN[C@@H](C)C4)n3)c21 (single isomer, unassigned) [Example 171] | 9 | E (a ratio of between 5 and 10) | 1 to 3.16 | 2.51 | 31.6 to 100 | 39.8 | –
C[C@@H]1CN(c2cc(C(F)(F)F)cc(-c3ccnc4c3C(C)(C)C(=O)N4)n2)CCCN1 [Example 186] | 22 | C (a ratio of between 20 and 30) | 3.16 to 10 | 6.31 | 31.6 to 100 | 50.1 | –
C[C@@]1(O)C(=O)Nc2nccc(-c3cc(C(F)(F)F)cc(N4CCNC(CC(F)(F)F)C4)n3)c21 (stereo partly drawn) [Example 125] | 13 | D (a ratio of between 10 and 20) | 10 to 31.6 | 15.8 | 316 to 1000 | 398 | –
C[C@@H]1CN[C@@H](C)CN1c1cc(C(F)(F)F)cc(-c2ccnc3c2C(C)(C)C(=O)N3)n1 [Example 177] | 24 | C (a ratio of between 20 and 30) | 3.16 to 10 | 6.31 | 31.6 to 100 | 63.1 | –
C[C@H]1CN(c2cc(C(F)(F)F)cc(-c3ccnc4c3[C@](C)(O)C(=O)N4)n2)CCN1 (single isomer, unassigned) [Example 95] | 15 | D (a ratio of between 10 and 20) | 1 to 3.16 | 2 | 31.6 to 100 | 31.6 | –
C[C@@H]1CN(c2cc(Cl)cc(-c3ccnc4c3C(C)(O)C(=O)N4)n2)CCN1 (stereo partly drawn) [Example 73] | 11 | D (a ratio of between 10 and 20) | 3.16 to 10 | 6.31 | 100 to 316 | 126 | –
O=C1Nc2nccc(-c3cc(F)cc(N4CCNCC4)c3)c2C12CCC2 [Example 35] | 3 | F (a ratio of between 1 and 5) | 31.6 to 100 | 39.8 | 316 to 1000 | 398 | –
C[C@H]1NCCN(c2cc(C(F)(F)F)cc(-c3ccnc4c3C(C)(C)C(=O)N4)n2)[C@H]1C [Example 127] | 15 | D (a ratio of between 10 and 20) | 1 to 3.16 | 1.26 | – | 25.1 | C (a measured pIC50 of between 7.5 and 8.0)
CC[C@H]1CN(c2cc(C(F)(F)F)cc(-c3ccnc4c3[C@](C)(O)C(=O)N4)n2)CCN1 (single isomer, unassigned) [Example 90] | 17 | D (a ratio of between 10 and 20) | 0.316 to 1 | 0.794 | 10 to 31.6 | 15.8 | –
CC[C@H]1CN(c2cc(Cl)cc(-c3ccnc4c3C(O)(CC)C(=O)N4)n2)CCN1 (stereo partly drawn) [Example 143] | 8 | E (a ratio of between 5 and 10) | 3.16 to 10 | 3.98 | 31.6 to 100 | 31.6 | –
C[C@@]1(O)C(=O)Nc2nccc(-c3cc(C(F)(F)F)cc(N4C[C@H]5CC[C@@H](C4)N5)n3)c21 (single isomer, unassigned) [Example 136] | 11 | D (a ratio of between 10 and 20) | 10 to 31.6 | 25.1 | 316 to 1000 | 501 | –
CC(C)[C@H]1CN(c2cccc(-c3ccnc4c3C(C)(C)C(=O)N4)c2)CCN1 [Example 50] | 2 | F (a ratio of between 1 and 5) | 31.6 to 100 | 79.4 | > 1000 | 1000 | –
O=c1[nH]c2nccc(-c3cccc(N4CCNCC4)n3)c2[nH]1 [Example 14] | 2 | F (a ratio of between 1 and 5) | 100 to 316 | 100 | 316 to 1000 | 631 | –
O=c1[nH]c2nccc(-c3cc(N4CCNCC4)ccn3)c2[nH]1 [Example 16] | 1 | G (a ratio of 0 to 1) | > 1000 | 6310 | > 1000 | 10000 | –
C[C@@H]1CN(c2ccc(Cl)c(-c3ccnc4c3[C@](C)(O)C(=O)N4)c2)CCN1 [Example 106] | 10 | D (a ratio of between 10 and 20) | 316 to 1000 | 1000 | > 1000 | 10000 | –
C[C@@H]1CNCCN1c1cc(Cl)cc(-c2ccnc3c2[C@](C)(O)C(=O)N3)n1 (single isomer, unassigned) [Example 105] | 7 | E (a ratio of between 5 and 10) | 0.316 to 1 | 1 | 10 to 31.6 | 20 | –
C[C@@]1(O)C(=O)Nc2nccc(-c3cc(Cl)cc(N4CCNC(CC(F)(F)F)C4)n3)c21 (single isomer, unassigned) [Example 122] | 16 | D (a ratio of between 10 and 20) | 3.16 to 10 | 3.98 | 100 to 316 | 251 | –
C[C@H]1CNCCCN1c1cc(C(F)(F)F)cc(-c2ccnc3c2C(C)(C)C(=O)N3)n1 [Example 189] | 16 | D (a ratio of between 10 and 20) | 3.16 to 10 | 5.01 | 100 to 316 | 251 | –
CC1(C)C(=O)Nc2nccc(-c3cccc(N(CC4COC4)C4CCCNC4)c3)c21 (stereo not drawn) [Example 26] | 2 | F (a ratio of between 1 and 5) | 100 to 316 | 158 | > 1000 | 2510 | –
CC[C@H]1CN(c2cc(C(F)(F)F)cc(-c3ccnc4c3C(C)(C)C(=O)N4)n2)CCN1 [Example 142] | 17 | D (a ratio of between 10 and 20) | 1 to 3.16 | 2 | 31.6 to 100 | 39.8 | –
CCC1(O)C(=O)Nc2nccc(-c3cc(Cl)cc(N4CCN[C@@H](C)C4)n3)c21 (stereo partly drawn) [Example 113] | 22 | C (a ratio of between 20 and 30) | 1 to 3.16 | 3.16 | 31.6 to 100 | 79.4 | –
CC1C(=O)Nc2nccc(-c3cccc(C(=O)N4CCNCC4)c3)c21 (stereo not drawn) [Example 27] | 1 | F (a ratio of between 1 and 5) | 316 to 1000 | 1000 | > 1000 | 10000 | –
CCC1(O)C(=O)Nc2nccc(-c3cc(C(F)(F)F)cc(N4CCNC[C@H]4C)n3)c21 (stereo partly drawn) [Example 131] | 6 | E (a ratio of between 5 and 10) | 3.16 to 10 | 3.98 | 31.6 to 100 | 39.8 | –
